Reference: US9101148B2, “Carbohydrate modifying agent and drinks containing the modifying agent” (SBS Food Group LLC, priority 2001, dated 2015)

Test system: mutans streptococci
Experiment: Inhibition of growth and adherence of mutans streptococci in vitro by zinc salts
Type: cell-based
Details: 0.5% zinc solution
Excerpt: In another preferred embodiment of the invention, the formulation includes one or more zinc salt or other source of the zinc ion. Metabolically, zinc is a critical nutrient in the synthesis of insulin and the metabolism of carbohydrates. From a dental perspective, cariogenic bacteria enzymatically produce an insoluble glucan deposit from simple sugars present in the mouth that firmly adheres to the enamel tooth surface.

Row | Molecule | adherence of mutans streptococci | growth of mutans streptococci
1 | [Cl-].[Cl-].[Zn+2] [zinc chloride] | inhibited | inhibited
2 | zinc ascorbate | inhibited | inhibited
